# Experimental data reported in patent US20250144067A1, “PERSONALIZED STARVATION THERAPY FOR CANCER” (Faeth Therapeutics, Inc., priority 2021, published 2025).
# Counter-ions that a name gives are not always drawn.
# What was measured:
# [1] = system: NCI-H292 lung cancer cells; assay: FDA drug screening, complete media vs cholesterol-free media without statin (TABLE 1); assay type: cell-based, human
# [2] = system: NCI-H292 lung cancer cells; assay: FDA drug screening, complete media vs cholesterol-free media with simvastatin (TABLE 2); assay type: cell-based, human; details: for Cholesterol-free media + simvastatin (0.04 μM) / Complete Media: NCI-H292 cells
# [3] = FDA library drug in cholesterol-free media with simvastatin 0.04 μM
# [4] = FDA library drug in complete media
# [5] = complete media vs cholesterol-free media + simvastatin (0.04 μM), >0 enhanced anti-cancer activity, about 0 neutral, <0 antagonist
# [6] = Complete minus Cholesterol-free, […]
# [7] = NCI-H292 cells, cholesterol-free media without statin, FDA drug library screen
# [8] = NCI-H292 cells, complete media, FDA drug library screen
# [9] = complete media vs cholesterol-free media + simvastatin (0.04 μM), […]
# [10] = complete vs cholesterol-free media, >0 enhanced anti-cancer activity, about 0 neutral, <0 antagonist
# [11] = FDA drug library screen, cholesterol-free media with simvastatin 0.04 μM
# [12] = FDA drug library screen, complete media
# [13] = complete media minus cholesterol-free media + simvastatin, >0 enhanced anti-cancer activity, about 0 neutral, <0 antagonist
# [14] = Complete minus Cholesterol-free, >0 enhanced anti-cancer activity, about 0 neutral, <0 antagonist
# [15] = NCI-H292 cells, cholesterol-free media without statin
# [16] = drug in cholesterol-free media with simvastatin 0.04 μM
# [17] = Complete minus Cholesterol-free, greater than 0 enhanced anti-cancer activity, about 0 neutral, below 0 antagonist
# [18] = NCI-H292 cells, FDA drug library screen, cholesterol-free media without statin
# [19] = NCI-H292 cells, FDA drug library screen, complete media
# [20] = complete vs cholesterol-free media, […]
# [21] = cholesterol-free media with simvastatin 0.04 μM, FDA drug library screen (TABLE 2)
# [22] = complete media, FDA drug library screen (TABLE 2)
# [23] = complete media minus cholesterol-free media + simvastatin (0.04 μM), >0 enhanced anti-cancer activity, about 0 neutral, <0 antagonist
compound,measurement,setting,value
Cc1ccc(C(=O)Nc2ccc(S(=O)(=O)O)c3cc(S(=O)(=O)O)cc(S(=O)(=O)O)c23)cc1NC(=O)c1cccc(NC(=O)Nc2cccc(C(=O)Nc3cc(C(=O)Nc4ccc(S(=O)(=O)O)c5cc(S(=O)(=O)O)cc(S(=O)(=O)O)c45)ccc3C)c2)c1 [Suramin (sodium salt)],Difference,"[1]; Complete minus Cholesterol-free, greater than 0 enhanced anti-cancer activity, about 0 neutral, below 0 antagonists",−0.70
same,Cholesterol-free,[1]; NCI-H292 cells in cholesterol-free media without statin,1.64
same,Complete,[1]; NCI-H292 cells in complete media,0.9404
same,Cholesterol-free media + simvastatin (0.04 μM),[2]; [3],1.303
same,Complete Media,[2]; [4],0.9716
same,Difference,[2]; [5],−0.33
C=CC[N+]1([C@H]2C[C@H]3[C@@H]4CC[C@H]5C[C@H](OC(C)=O)[C@@H](N6CCCCC6)C[C@]5(C)[C@H]4CC[C@]3(C)[C@H]2OC(=O)CC)CCCCC1 [Rapacuronium bromide],Difference,[1]; [6],0.04
same,Cholesterol-free,[1]; [7],0.8802
same,Complete,[1]; [8],0.9158
same,Cholesterol-free media + simvastatin (0.04 μM),[2]; [3],1.051
same,Complete Media,[2]; [4],0.7626
same,Difference,[2]; [9],−0.29
CCCS(=O)(=O)Nc1ccc(F)c(C(=O)c2c[nH]c3ncc(-c4ccc(Cl)cc4)cc23)c1F [Vemurafenib],Cholesterol-free,[1]; [7],0.6442
same,Complete,[1]; [8],1.257
same,Difference,[1]; [10],0.61
same,Cholesterol-free media + simvastatin (0.04 μM),[2]; [11],0.8006
same,Complete Media,[2]; [12],0.9559
same,Difference,[2]; [13],0.16
COc1cc2c(cc1OC)C(=O)C(CC1CCN(Cc3ccccc3)CC1)C2 (stereo not drawn) [Donepezil (Hydrochloride)],Difference,[1]; [14],−0.23
same,Cholesterol-free,[1]; [15],0.9321
same,Complete,"[1]; NCI-H292 cells, complete media",0.7035
same,Cholesterol-free media + simvastatin (0.04 μM),[2]; [11],0.6694
same,Complete Media,[2]; [12],0.8164
same,Difference,[2]; [13],0.15
Inulin,Difference,[1]; [6],−0.02
same,Cholesterol-free,[1]; [7],0.9221
same,Complete,[1]; [8],0.9055
same,Cholesterol-free media + simvastatin (0.04 μM),[2]; [16],1.179
same,Complete Media,[2]; drug in complete media,0.9318
same,Difference,[2]; [9],−0.25
CCCCN(CCCC)C(=O)CN1C[C@H](c2ccc3c(c2)OCO3)[C@@H](C(=O)O)[C@@H]1c1ccc(OC)cc1 [Atrasentan (hydrochloride)],Difference,[1]; [17],−0.17
same,Cholesterol-free,[1]; [18],1.198
same,Complete,[1]; [19],1.025
same,Cholesterol-free media + simvastatin (0.04 μM),[2]; [16],1.092
same,Complete Media,[2]; drug in complete media,0.8532
same,Difference,[2]; [5],−0.24
CCCCCCCCCC(=O)N[C@@H](Cc1c[nH]c2ccccc12)C(=O)N[C@H](CC(N)=O)C(=O)N[C@@H](CC(=O)O)C(=O)N[C@@H]1C(=O)NCC(=O)N[C@@H](CCCN)C(=O)N[C@@H](CC(=O)O)C(=O)N[C@H](C)C(=O)N[C@@H](CC(=O)O)C(=O)NCC(=O)N[C@H](CO)C(=O)N[C@@H]([C@H](C)CC(=O)O)C(=O)N[C@@H](CC(=O)c2ccccc2N)C(=O)O[C@@H]1C [Daptomycin],Cholesterol-free,[1]; [15],1.025
same,Complete,"[1]; NCI-H292 cells, complete media",0.6476
same,Difference,[1]; [20],−0.38
same,Cholesterol-free media + simvastatin (0.04 μM),[2]; [11],1.147
same,Complete Media,[2]; [12],1.33
same,Difference,"[2]; complete media minus cholesterol-free media + simvastatin, […]",0.18
CC1(C)S[C@@H]2[C@H](/N=C/N3CCCCCC3)C(=O)N2[C@H]1C(=O)O [Mecillinam],Difference,[1]; [17],−0.15
same,Cholesterol-free,[1]; [18],0.9011
same,Complete,[1]; [19],0.7528
same,Cholesterol-free media + simvastatin (0.04 μM),[2]; [11],1.033
same,Complete Media,[2]; [12],1.74
same,Difference,[2]; [13],0.71
CN(C)c1cc(NC(=O)CNC(C)(C)C)c(O)c2c1C[C@H]1C[C@H]3[C@H](N(C)C)C(O)=C(C(N)=O)C(=O)[C@@]3(O)C(O)=C1C2=O [Tigecycline],Difference,[1]; [6],−0.13
same,Cholesterol-free,[1]; [18],1.231
same,Complete,[1]; [19],1.106
same,Cholesterol-free media + simvastatin (0.04 μM),[2]; [3],1.179
same,Complete Media,[2]; [4],0.8929
same,Difference,[2]; [9],−0.29
COc1cc(C=O)ccc1O [Vanillin],Cholesterol-free,[1]; [7],0.7241
same,Complete,[1]; [8],0.863
same,Difference,[1]; [10],0.14
same,Cholesterol-free media + simvastatin (0.04 μM),[2]; [21],1.042
same,Complete Media,[2]; [22],1.057
same,Difference,[2]; [23],0.02
NCCCC[C@H](N[C@@H](CCc1ccccc1)C(=O)O)C(=O)N1CCC[C@H]1C(=O)O [Lisinopril (dihydrate)],Difference,[1]; [17],−0.08
same,Cholesterol-free,[1]; [18],1.734
same,Complete,[1]; [19],1.657
same,Cholesterol-free media + simvastatin (0.04 μM),[2]; [21],0.94
same,Complete Media,[2]; [22],0.9409
same,Difference,[2]; [23],0.00
COc1ccccc1OCC(O)COC(N)=O (stereo not drawn) [Methocarbamol],Difference,[1]; [14],−0.29
same,Cholesterol-free,[1]; [15],1.357
same,Complete,"[1]; NCI-H292 cells, complete media",1.063
same,Cholesterol-free media + simvastatin (0.04 μM),[2]; [3],1.33
same,Complete Media,[2]; [4],0.8727
same,Difference,[2]; [5],−0.46
Cc1ccccc1C(=O)Nc1ccc(C(=O)N2CCCC(O)c3cc(Cl)ccc32)c(C)c1 (stereo not drawn) [Tolvaptan],Difference,[1]; [14],−0.06
same,Cholesterol-free,[1]; [7],0.8732
same,Complete,[1]; [8],0.8126
same,Cholesterol-free media + simvastatin (0.04 μM),[2]; [3],2.102
same,Complete Media,[2]; [4],1.367
same,Difference,[2]; [5],−0.73
CN(C)c1ccc(O)c2c1C[C@H]1C[C@H]3[C@H](N(C)C)C(O)=C(C(N)=O)C(=O)[C@@]3(O)C(O)=C1C2=O [Minocycline (hydrochloride)],Cholesterol-free,[1]; [7],0.8959
same,Complete,[1]; [8],1.177
same,Difference,[1]; [10],0.28
same,Cholesterol-free media + simvastatin (0.04 μM),[2]; [11],1.589
same,Complete Media,[2]; [12],1.958
same,Difference,[2]; [13],0.37
NCCCNCCSP(=O)(O)O [Amifostine],Difference,[1]; [17],−0.17
same,Cholesterol-free,[1]; [18],1.387
same,Complete,[1]; [19],1.213
same,Cholesterol-free media + simvastatin (0.04 μM),[2]; [21],0.9829
same,Complete Media,[2]; [22],0.9429
same,Difference,[2]; [23],−0.04
CN(C)[C@@H]1C(O)=C(C(N)=O)C(=O)[C@@]2(O)C(O)=C3C(=O)c4c(O)c(NC(=O)CN5CCCC5)cc(F)c4C[C@H]3C[C@@H]12 [Eravacycline (dihydrochloride)],Cholesterol-free,[1]; [7],0.2139
same,Complete,[1]; [8],0.4019
same,Difference,[1]; [20],0.19
same,Cholesterol-free media + simvastatin (0.04 μM),[2]; [21],0.8088
same,Complete Media,[2]; [22],0.7999
same,Difference,"[2]; complete media minus cholesterol-free media + simvastatin (0.04 μM), […]",−0.01
O.O.O.O.O.O.O.O=C1N=C([O-])CN1/N=C/c1ccc(-c2ccc([N+](=O)[O-])cc2)o1.O=C1N=C([O-])CN1/N=C/c1ccc(-c2ccc([N+](=O)[O-])cc2)o1.[Na+].[Na+] [Dantrolene (sodium hemiheptahydrate)],Cholesterol-free,[1]; [15],1.274
same,Complete,"[1]; NCI-H292 cells, complete media",0.9468
same,Difference,"[1]; complete vs cholesterol-free media, greater than 0 enhanced anti-cancer activity, about 0 neutral, below 0 antagonists",−0.33
same,Cholesterol-free media + simvastatin (0.04 μM),[2]; [3],1.565
same,Complete Media,[2]; [4],1.218
same,Difference,[2]; [5],−0.35
[H]/N=C(\N/C(=N/[H])NCCCCCCNC(=N)NC(=N)Nc1ccc(Cl)cc1)Nc1ccc(Cl)cc1 [Chlorhexidine (digluconate)],Cholesterol-free,[1]; [7],0.8244
same,Complete,[1]; [8],0.943
same,Difference,[1]; [10],0.12
same,Cholesterol-free media + simvastatin (0.04 μM),[2]; [21],1.008
same,Complete Media,[2]; [22],0.9694
same,Difference,[2]; [23],−0.04
CC1OC2(CS1)CN1CCC2CC1 (stereo not drawn) [Cevimeline (hydrochloride hemihydrate)],Cholesterol-free,[1]; [7],0.5656
same,Complete,[1]; [8],1.046
same,Difference,[1]; [10],0.48
same,Cholesterol-free media + simvastatin (0.04 μM),[2]; [21],0.9444
same,Complete Media,[2]; [22],0.9482
same,Difference,[2]; [23],0.00
Tedizolid (phosphate),Difference,[1]; [14],−0.01
same,Cholesterol-free,[1]; [7],0.8406
same,Complete,[1]; [8],0.8345
same,Cholesterol-free media + simvastatin (0.04 μM),"[2]; cholesterol-free media with simvastatin 0.04 μM, cell growth value in FDA drug screen",0.7735
same,Complete Media,"[2]; complete media, cell growth value in FDA drug screen",0.8096
same,Difference,[2]; [13],0.04
